Earlier results as cited in patent US20090047245A1, “Prognostic chronic hepatitis C biomarkers” (priority 2007, published 2009).

Test system: HCV

Question: Which “increase of the sustained response rate” value (ribavirin added to interferon) does the source give for `NC(=O)c1ncn([C@@H]2O[C@H](CO)[C@@H](O)[C@H]2O)n1` [ribavirin] here?
Answer: two- to three-fold

Question: And the “effect on HCV” value (ribavirin by itself)?
Answer: little effect on HCV
